# Patent publication US20160281050A1, “METHODS FOR TREATING A CULTURE OF HAEMATOCOCCUS PLUVIALIS FOR CONTAMINATION USING SALT AND HYDROGEN PEROXIDE” (HELIAE DEVELOPMENT LLC, priority 2015, published 2016)
# Where two headings read alike, the source gives them in different places.
# How the values were obtained:
# [1] = tested on: chytrids; experiment: % chytrid infection in flask cultures (Example 6); assay type: cell-based
# Experimental: A series of experiments were conducted to evaluate the effectiveness of hydrogen peroxide alone and in combination with concentrations of salt as a treatment for controlling chytrid infections in Haematococcus pluvialis cultures. […] Bioreactor #2420 had just been inoculated with cells in the green swimmer stage into reddening conditions that comprised of culture medium comprising a 1 ppt concentration of sodium chloride (NaCl). The flask experiment consisted of duplicate untreated controls and duplicate treatments.
# The flask cultures contained Haematococcus pluvialis (Strain 1) cells in both the green swimmer stage and early red cyst stage.
# The collected samples were inoculated in the green swimmer stage in growth conditions [i.e., in the absence of sodium chloride (NaCl)].
# The culture samples were inoculated in the green swimmer stage in growth conditions [i.e., in less than 1 ppt of sodium chloride (NaCl)].
# The flask cultures were then diluted 1:3 into reddening media comprising 1 ppt NaCl or 2 ppt NaCl (33.3 mL and 66.6 mL culture media).
# [2] = tested on: Haematococcus pluvialis (Strain 2); experiment: % lysis and culture dry weight in flasks (Example 9); conditions: for percent lysis: by day 5;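 for all read-outs here: flask cultures run in duplicate for each treatment, alongside duplicate untreated control flasks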
# Description: Culture samples of Haematococcus pluvialis (Strain 2) were collected on day 5 of the culture from open raceway bioreactor #2420 operating in conditions: reactor volume of 170,000 L; Daily PAR not measured; pH of 7.3; and paddlewheel speed of 70%). Culture samples were distributed into flasks for culturing, consisting of duplicate untreated controls and duplicate treatments. […] Samples were taken from the flask cultures every few days in order to quantify % lysis, % chytrid infection, and cell dry weight for a duration of about 11 days.
# [3] = tested on: chytrids
# Description: Culture samples of Haematococcus pluvialis (Strain 2) were collected on the second day of culture from open raceway bioreactor #2410 operating in conditions: reactor volume of 150,000 L; Daily PAR of 9.77 mol m^−2 d^−1; pH of 7.3; and paddlewheel speed of 70%. Culture samples were distributed into flasks for culturing, consisting of duplicate untreated controls and duplicate treatments. […] Samples were taken from the flask cultures daily to quantify % lysis and % chytrid infection and cell dry weight was quantified every other day for a duration of 11 days.
substance,measurement,setting,value
hydrogen peroxide [H2O2],reduction in % chytrid infection compared to the control,"[1]; 4th experiment, starting 5 days after inoculation (144 h)",50-90%
same,Average Chytrid Infection,"[1]; #2210 samples, absence of NaCl, 0.0075 mL/L two times per day, 0 h",0.0 ± 0.0%
same,Average Chytrid Infection,"[1]; #2210 samples, absence of NaCl, 0.0075 mL/L two times per day, 24 h",0.0 ± 0.0%
same,Average Chytrid Infection,"[1]; #2210 samples, absence of NaCl, 0.0075 mL/L two times per day, 48 h",0.0 ± 0.0%
same,Average Chytrid Infection,"[1]; #2210 samples, absence of NaCl, 0.0075 mL/L two times per day, 96 h",0.0 ± 0.0%
same,Average Chytrid Infection,"[1]; #2210 samples, absence of NaCl, 0.0075 mL/L two times per day, 120 h",0.0 ± 0.0%
same,Average Chytrid Infection,"[1]; #2210 samples, absence of NaCl, 0.0075 mL/L two times per day, 144 h",4.2 ± 5.9%
same,Average Chytrid Infection,"[1]; #2210 samples, absence of NaCl, 0.0075 mL/L two times per day, 168 h",18.3 ± 25.9%
same,Average Chytrid Infection,"[1]; #2210 samples, absence of NaCl, 0.0075 mL/L two times per day, 192 h",26.6 ± 37.1%
same,Average Chytrid Infection,"[1]; #2210 samples, absence of NaCl, 0.0075 mL/L two times per day, 264 h",51.7 ± 7.1%
same,Average Chytrid Infection,"[1]; #2310 samples (4th experiment), 1 ppt NaCl, 0.0075 mL/L 3 times per day, 0 h",0.0 ± 0.0%
same,Average Chytrid Infection,"[1]; #2310 samples (4th experiment), 1 ppt NaCl, 0.0075 mL/L 3 times per day, 24 h",0.0 ± 0.0%
same,Average Chytrid Infection,"[1]; #2310 samples (4th experiment), 1 ppt NaCl, 0.0075 mL/L 3 times per day, 48 h",0.0 ± 0.0%
same,Average Chytrid Infection,"[1]; #2310 samples (4th experiment), 1 ppt NaCl, 0.0075 mL/L 3 times per day, 120 h",1.7 ± 1.7%
same,Average Chytrid Infection,"[1]; #2310 samples (4th experiment), 1 ppt NaCl, 0.0075 mL/L 3 times per day, 144 h",18.3 ± 18.5%
same,Average Chytrid Infection,"[1]; #2310 samples (4th experiment), 1 ppt NaCl, 0.0075 mL/L 3 times per day, 168 h",17.2 ± 14.4%
same,Average Chytrid Infection,"[1]; #2310 samples (4th experiment), 1 ppt NaCl, 0.0075 mL/L 3 times per day, 192 h",32.2 ± 28.1%
same,Average Chytrid Infection,"[1]; #2310 samples (4th experiment), 1 ppt NaCl, 0.0075 mL/L 3 times per day, 216 h",44.4 ± 46.8%
same,Average Chytrid Infection,"[1]; #2420 samples, 1 ppt NaCl, 0.0075 mL/L 2-3 times per day, 0 h",0.0 ± 0.0%
same,Average Chytrid Infection,"[1]; #2420 samples, 1 ppt NaCl, 0.0075 mL/L 2-3 times per day, 24 h",0.0 ± 0.0%
same,Average Chytrid Infection,"[1]; #2420 samples, 1 ppt NaCl, 0.0075 mL/L 2-3 times per day, 48 h",0.0 ± 0.0%
same,Average Chytrid Infection,"[1]; #2420 samples, 1 ppt NaCl, 0.0075 mL/L 2-3 times per day, 72 h",0.0 ± 0.0%
same,Average Chytrid Infection,"[1]; #2420 samples, 1 ppt NaCl, 0.0075 mL/L 2-3 times per day, 144 h",0.0 ± 0.0%
same,Average Chytrid Infection,"[1]; #2420 samples, 1 ppt NaCl, 0.0075 mL/L 2-3 times per day, 168 h",0.0 ± 0.0%
same,Average Chytrid Infection,"[1]; #2420 samples, 1 ppt NaCl, 0.0075 mL/L 2-3 times per day, 197 h",0.0 ± 0.0%
same,Average Chytrid Infection,"[1]; #2420 samples, 1 ppt NaCl, 0.0075 mL/L 2-3 times per day, 217 h",0.0 ± 0.0%
same,Average Chytrid Infection,"[1]; #2440 samples, 1 ppt salt, 0.0075 mL/L 2-3 times per day, 0 h",0.0 ± 0.0%
same,Average Chytrid Infection,"[1]; #2440 samples, 1 ppt salt, 0.0075 mL/L 2-3 times per day, 24 h",1.7 ± 2.9%
same,Average Chytrid Infection,"[1]; #2440 samples, 1 ppt salt, 0.0075 mL/L 2-3 times per day, 96 h",25.0 ± 2.9%
same,Average Chytrid Infection,"[1]; #2440 samples, 1 ppt salt, 0.0075 mL/L 2-3 times per day, 120 h",51.7 ± 5.0%
same,Average Chytrid Infection,"[1]; #2440 samples, 1 ppt salt, 0.0075 mL/L 2-3 times per day, 144 h",43.9 ± 4.2%
same,% Lysis,"[2]; 0.0105 mL/L 3 times per day (discontinued day 5), day 6",3.3 ± 2.4%
same,% Lysis,"[2]; 0.0105 mL/L 3 times per day (discontinued day 5), day 9",6.7 ± 2.4%
same,% Lysis,"[2]; 0.0105 mL/L 3 times per day (discontinued day 5), day 11",4.2 ± 3.5%
same,% Lysis,"[2]; 0.0105 mL/L 3 times per day, day 0",4.2 ± 1.2%
same,% Lysis,"[2]; 0.0105 mL/L 3 times per day, day 3",0.8 ± 1.2%
same,% Lysis,"[2]; 0.0105 mL/L 3 times per day, day 4",3.3 ± 2.4%
same,% Lysis,"[2]; 0.0105 mL/L 3 times per day, day 5",10.8 ± 1.2%
same,% Lysis,"[2]; 0.0140 mL/L 1 time per day (discontinued day 5), day 6",7.5 ± 1.2%
same,% Lysis,"[2]; 0.0140 mL/L 1 time per day (discontinued day 5), day 9",10.8 ± 1.2%
same,% Lysis,"[2]; 0.0140 mL/L 1 time per day (discontinued day 5), day 11",7.5 ± 1.2%
same,% Lysis,"[2]; 0.0140 mL/L 1 time per day, day 0",4.2 ± 1.2%
same,% Lysis,"[2]; 0.0140 mL/L 1 time per day, day 3",5.0 ± 2.4%
same,% Lysis,"[2]; 0.0140 mL/L 1 time per day, day 4",4.2 ± 1.2%
same,% Lysis,"[2]; 0.0140 mL/L 1 time per day, day 5",10.0 ± 2.4%
same,% Lysis,"[2]; 0.0140 mL/L 2 times per day (discontinued day 5), day 6",9.7 ± 5.9%
same,% Lysis,"[2]; 0.0140 mL/L 2 times per day (discontinued day 5), day 9",5.0 ± 0.0%
same,% Lysis,"[2]; 0.0140 mL/L 2 times per day (discontinued day 5), day 11",0.0 ± 0.0%
same,% Lysis,"[2]; 0.0140 mL/L 2 times per day, day 0",4.2 ± 1.2%
same,% Lysis,"[2]; 0.0140 mL/L 2 times per day, day 3",5.0 ± 4.7%
same,% Lysis,"[2]; 0.0140 mL/L 2 times per day, day 4",3.3 ± 2.4%
same,% Lysis,"[2]; 0.0140 mL/L 2 times per day, day 5",10.0 ± 2.4%
same,% Lysis,"[2]; 0.0140 mL/L 3 times per day (discontinued day 5), day 6",55.0 ± 30.6%
same,% Lysis,"[2]; 0.0140 mL/L 3 times per day (discontinued day 5), day 9",60.0 ± 28.3%
same,% Lysis,"[2]; 0.0140 mL/L 3 times per day (discontinued day 5), day 11",56.7 ± 33.0%
same,% Lysis,"[2]; 0.0140 mL/L 3 times per day, day 0",4.2 ± 1.2%
same,% Lysis,"[2]; 0.0140 mL/L 3 times per day, day 3",2.5 ± 3.5%
same,% Lysis,"[2]; 0.0140 mL/L 3 times per day, day 4",9.2 ± 1.2%
same,% Lysis,"[2]; 0.0140 mL/L 3 times per day, day 5",42.5 ± 15.3%
same,percent lysis,[2]; 0.014 mL/L dosed three times per day,40%
same,% Lysis,"[2]; 0.0175 mL/L 1 time per day (discontinued day 5), day 6",6.7 ± 2.4%
same,% Lysis,"[2]; 0.0175 mL/L 1 time per day (discontinued day 5), day 9",6.7 ± 4.7%
same,% Lysis,"[2]; 0.0175 mL/L 1 time per day (discontinued day 5), day 11",4.2 ± 3.5%
same,% Lysis,"[2]; 0.0175 mL/L 1 time per day, day 0",4.2 ± 1.2%
same,% Lysis,"[2]; 0.0175 mL/L 1 time per day, day 3",2.5 ± 1.2%
same,% Lysis,"[2]; 0.0175 mL/L 1 time per day, day 4",4.2 ± 1.2%
same,% Lysis,"[2]; 0.0175 mL/L 1 time per day, day 5",9.2 ± 1.2%
same,percent lysis,[2]; all treated cultures except 0.014 mL/L three times per day,10%
same,% Chytrid infection,"[3]; 0.0105 mL/L 1 time daily for 3 days, day 1",0.0 ± 0.0%
same,% Chytrid infection,"[3]; 0.0105 mL/L 1 time daily for 3 days, day 2",0.0 ± 0.0%
same,% Chytrid infection,"[3]; 0.0105 mL/L 1 time daily for 3 days, day 3",0.0 ± 0.0%
same,% Chytrid infection,"[3]; 0.0105 mL/L 1 time daily for 3 days, day 4",0.0 ± 0.0%
same,% Chytrid infection,"[3]; 0.0105 mL/L 1 time daily for 3 days, day 5",0.8 ± 1.2%
same,% Chytrid infection,"[3]; 0.0105 mL/L 1 time daily for 3 days, day 6",0.0 ± 0.0%
same,% Chytrid infection,"[3]; 0.0105 mL/L 1 time daily for 3 days, day 7",1.7 ± 2.4%
same,% Chytrid infection,"[3]; 0.0105 mL/L 1 time every other day, day 1",0.0 ± 0.0%
same,% Chytrid infection,"[3]; 0.0105 mL/L 1 time every other day, day 2",0.0 ± 0.0%
same,% Chytrid infection,"[3]; 0.0105 mL/L 1 time every other day, day 3",2.5 ± 1.2%
same,% Chytrid infection,"[3]; 0.0105 mL/L 1 time every other day, day 4",0.0 ± 0.0%
same,% Chytrid infection,"[3]; 0.0105 mL/L 1 time every other day, day 5",0.8 ± 1.2%
same,% Chytrid infection,"[3]; 0.0105 mL/L 1 time every other day, day 6",3.3 ± 0.0%
same,% Chytrid infection,"[3]; 0.0105 mL/L 1 time every other day, day 7",0.8 ± 1.2%
same,% Chytrid infection,"[3]; 0.0105 mL/L 1 time per day, day 1",0.0 ± 0.0%
same,% Chytrid infection,"[3]; 0.0105 mL/L 1 time per day, day 2",0.0 ± 0.0%
same,% Chytrid infection,"[3]; 0.0105 mL/L 1 time per day, day 3",0.0 ± 0.0%
same,% Chytrid infection,"[3]; 0.0105 mL/L 1 time per day, day 4",0.0 ± 0.0%
same,% Chytrid infection,"[3]; 0.0105 mL/L 1 time per day, day 5",2.5 ± 3.5%
same,% Chytrid infection,"[3]; 0.0105 mL/L 1 time per day, day 6",0.0 ± 0.0%
same,% Chytrid infection,"[3]; 0.0105 mL/L 1 time per day, day 7",0.0 ± 0.0%
same,chytrid infection,"[3]; all treated flasks, 0.0105 mL/L",below 5%
